Biological target: T1, Tyrosine-protein phosphatase non-receptor type 1 (Homo sapiens, UniProt P18031)
T1 sequence (P18031 whole entry): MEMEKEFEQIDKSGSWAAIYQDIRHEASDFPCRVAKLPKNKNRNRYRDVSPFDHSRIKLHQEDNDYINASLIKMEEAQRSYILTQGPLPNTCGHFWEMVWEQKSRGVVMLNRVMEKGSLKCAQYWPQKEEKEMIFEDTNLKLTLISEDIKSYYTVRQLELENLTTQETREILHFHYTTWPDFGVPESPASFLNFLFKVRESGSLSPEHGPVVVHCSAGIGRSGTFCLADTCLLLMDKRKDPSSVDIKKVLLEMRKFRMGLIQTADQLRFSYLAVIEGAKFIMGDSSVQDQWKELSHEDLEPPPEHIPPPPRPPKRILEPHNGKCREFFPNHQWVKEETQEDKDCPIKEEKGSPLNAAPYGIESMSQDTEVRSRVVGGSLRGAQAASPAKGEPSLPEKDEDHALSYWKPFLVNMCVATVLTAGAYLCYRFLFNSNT
Test: Inhibition of human PTP1B

SMILES | IC50 [µM]
O=C1Oc2cc(O)c3c(c2[C@]12c1c(O)cc(O)cc1O[C@@H]2c1ccc(O)cc1)O[C@H](c1ccc(O)cc1)[C@H](O)C3 [LARIXINOL] | 12.9
O=C1Oc2cc(O)c3c(c2[C@]12c1c(O)cc(O)cc1O[C@@H]2c1ccc(O)cc1)O[C@H](c1ccc(O)cc1)[C@@H](O)C3 | 3.3
O=C1Oc2cc(O)c3c(c2[C@@]12c1c(O)cc(O)cc1O[C@@H]2c1ccc(O)cc1)O[C@H](c1ccc(O)cc1)[C@@H](O)C3 | 17.1
O=C1Oc2cc(O)c3c(c2[C@]12c1c(O)cc(O)cc1O[C@H]2c1ccc(O)cc1)O[C@H](c1ccc(O)cc1)[C@@H](O)C3 | 11.2
O=C1Oc2cc(O)c3c(c2[C@@]12c1c(O)cc(O)cc1O[C@H]2c1ccc(O)cc1)O[C@H](c1ccc(O)cc1)[C@@H](O)C3 | 4.6
O=C1Oc2cc(O)c3c(c2[C@@]12c1c(O)cc(O)cc1O[C@@H]2c1ccc(O)cc1)O[C@H](c1ccc(O)cc1)[C@H](O)C3 | 8.1
